The values below are quoted from earlier work in US4925674A (hiMedics, Inc., priority 1988, dated 1990).

The conditions of the data set: well known.

With `CC1(C)S[C@@H]2[C@H](NC(=O)[C@H](N)c3ccc(O)cc3)C(=O)N2[C@H]1C(=O)O` [Amoxicillin, amoxicillin], the dose-related gastrointestinal upsets entry was “dose-related gastrointestinal upsets (epigastric distress, nausea, vomiting, and especially diarrhea) occur commonly”.
